The values below come from patent US9255072B2, “Pyrazole compounds and thiazole compounds as protein kinases inhibitors” (National Health Rsearch Institutes, priority 2011, dated 2016).

In one experiment the target is T1, VEGFR2 (Homo sapiens, UniProt P35968).
T1 construct: GST-VEGFR2 (residues V789-V1356); GST (N); made in house; host or cells: Sf9 insect cells
Briefly: VEGFR2 Kinase-Glo kinase assay. It is filed as biochemical. For orientation: Kinase-Glo measures the ATP left after a reaction by luminescence.

A further experiment deals with MOLM-13 cell. Briefly: MTS cell viability assay. The following applies: Homo sapiens, MOLM-13, 72 h, table of representative values. The experiment is classed as cell-based. The text has this: The leukemias cell lines MOLM-13, MV4:11, RSV4:11, MOLT-4, U937, and K562 were purchased from American Type Culture Collection (ATCC, Manassas, Va., USA). The non-leukemias cell lines HCC827, H1975, NCIH460, A431, Huh7, SF268, MCF-7, HCT-116, and normal human fetal fibroblast cell line Detriot 551 were purchased from American Type Culture Collection (ATCC, Manassas, Va., USA). All leukemias cell lines and HCC827, H1975, NCIH460, A431 were maintained in RPMI 1640 medium supplemented with 10% fetal bovine serum (FBS), 10 U/ml penicillin, and 10 µg/ml streptomycin at 37° C. and 5% CO2. The cell lines Huh7, SF268, MCF-7, and Detroit 551 were cultured in DMEM medium supplemented with 10% FBS, 0.01% nonessential amino acids, 10 U/ml penicillin, and 10 µg/ml streptomycin. HCT-116 were cultured in McCoy's 5A medium supplemented with 10% FBS, 0.01% nonessential amino acids, 10 U/ml penicillin, and 10 µg/ml streptomycin. To determine cell viability after drug treatment, assays were performed by seeding 10,000 cells (leukemias cell lines) or 2,500 cells (non-leukemias cell lines) per well in a 96-well culture plate. After 16 h, cells were then treated with vehicle or various concentrations of compound in medium for 72 h. Viable cells were quantitated using the MTS method (Promega, Madison, Wis., USA) according to the manufacturer's recommended protocol. The results were determined by measuring the absorbance at 490 nm using a plate reader (Victor2; PerkinElmer, Shelton, Conn., USA).

The target of the next experiment is T2, wt-FLT3 (Homo sapiens, UniProt P36888).
T2 construct: FLT3 kinase catalytic domain (residues Y567˜S993); made in house; host or cells: Sf9 insect cells (baculovirus, pBac-PAK8-GST-FLT3-KD plasmid)
T2 sequence (P36888 567-993): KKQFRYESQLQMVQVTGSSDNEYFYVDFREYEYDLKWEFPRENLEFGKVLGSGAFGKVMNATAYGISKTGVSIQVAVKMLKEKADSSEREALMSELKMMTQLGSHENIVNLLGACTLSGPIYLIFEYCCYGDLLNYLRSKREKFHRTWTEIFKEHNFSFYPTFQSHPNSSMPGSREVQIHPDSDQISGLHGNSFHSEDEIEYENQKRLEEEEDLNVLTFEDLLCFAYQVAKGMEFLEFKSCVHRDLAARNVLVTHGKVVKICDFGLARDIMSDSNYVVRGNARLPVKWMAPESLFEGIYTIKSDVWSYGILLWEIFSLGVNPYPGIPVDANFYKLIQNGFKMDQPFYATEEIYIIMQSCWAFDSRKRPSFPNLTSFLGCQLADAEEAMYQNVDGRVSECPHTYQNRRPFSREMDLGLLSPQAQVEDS
Briefly: FLT3 WT Kinase-Glo assay. The experiment is classed as biochemical. In a few lines: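 GST-tagged wild-type FLT3 kinase domain (residues Y567–S993), expressed in Sf9 cells, was used. After the kinase reaction, remaining ATP was detected by Kinase-Glo Plus luminescence following 20 min at 25 °C.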

The target in another experiment is T3, Aurora A (Homo sapiens, UniProt O14965).
T3 construct: GST-Aurora A (residues S123-S401); GST (N); made in house; host or cells: Sf9 insect cells
T3 sequence (O14965 123-401): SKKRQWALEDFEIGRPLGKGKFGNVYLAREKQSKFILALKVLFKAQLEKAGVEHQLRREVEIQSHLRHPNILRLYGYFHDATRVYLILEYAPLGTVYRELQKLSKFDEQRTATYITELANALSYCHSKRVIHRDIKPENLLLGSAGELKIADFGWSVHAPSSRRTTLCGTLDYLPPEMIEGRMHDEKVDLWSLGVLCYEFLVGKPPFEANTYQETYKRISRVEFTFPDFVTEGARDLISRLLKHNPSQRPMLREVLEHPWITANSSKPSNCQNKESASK
The experiment can be described thus: Aurora kinase A Kinase-Glo kinase assay. It is filed as biochemical.

Where [1] appears, read: VEGFR2 assay, 1 μM ATP, bound in μM, read-out: IC50.
The mark [2] stands for this setting: VEGFR2 assay, 1 μM ATP, ranges in nM, read-out: IC50.
[3] abbreviates: table of representative values, read-out: IC50 (nM) VEGFR2.
The mark [4] stands for this setting: FLT3 WT Kinase-Glo, 1 μM ATP, read-out: IC50.
Where [5] appears, read: table of representative values, read-out: IC50 (nM) wt-FLT3.
[6] abbreviates: Aurora A assay, 5 μM ATP, bound in nM, read-out: IC50.
The mark [7] stands for this setting: Aurora A assay, 5 μM ATP, bound in μM, read-out: IC50.
Where [8] appears, read: table of representative values, read-out: IC50 (nM) Aurora A.

Each structure is given as a SMILES string. Where two headings read alike, the source gives them in different places. A value given as a limit tells only on which side of the number the result lay.

T1 sequence (P35968 789-1356): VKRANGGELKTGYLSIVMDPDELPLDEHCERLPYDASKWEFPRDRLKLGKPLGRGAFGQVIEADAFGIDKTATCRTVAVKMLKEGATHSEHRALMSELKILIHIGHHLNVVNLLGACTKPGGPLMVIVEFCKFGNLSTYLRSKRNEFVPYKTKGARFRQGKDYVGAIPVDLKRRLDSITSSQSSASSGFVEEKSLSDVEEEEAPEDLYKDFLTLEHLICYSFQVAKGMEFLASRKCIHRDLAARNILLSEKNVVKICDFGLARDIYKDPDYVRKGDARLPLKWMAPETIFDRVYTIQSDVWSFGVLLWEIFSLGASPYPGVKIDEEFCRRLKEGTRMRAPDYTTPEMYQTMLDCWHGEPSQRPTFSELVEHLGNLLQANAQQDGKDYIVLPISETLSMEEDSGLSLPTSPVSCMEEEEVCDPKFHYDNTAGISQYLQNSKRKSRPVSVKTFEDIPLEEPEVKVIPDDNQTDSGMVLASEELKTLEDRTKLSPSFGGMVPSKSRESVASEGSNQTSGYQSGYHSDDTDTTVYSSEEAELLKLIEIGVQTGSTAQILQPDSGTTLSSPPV

The IC50 is the concentration needed to halve the response being measured. What is called GI50 is the concentration at which growth is held to half of that of the control. Read a high GI50 as lower sensitivity of the cells. On to `CCc1cc(NC(=O)Nc2ccc(-c3cnc(Nc4cc(N5CCC(N)C5)nc(C)n4)s3)cc2)no1` (stereo not drawn) [Compound 119, N-[4-(2-[6-(3-aminotetrahydro-1H-1-pyrrolyl)-2-methyl-4-pyrimidinyl]amino-1,3-thiazol-5-yl)phenyl]N′-(5-ethyl-3-isoxazolyl)urea], for which the IC50 at VEGFR2 (setting [1]) was below 1 µM; on VEGFR2 (setting [2]), 0.001 to 0.055 µM; on VEGFR2 (setting [3]), 0.007 µM; on wt-FLT3 (setting [4]), 1 to 20 nM; at wt-FLT3 (setting [5]), 14 nM; on Aurora A (setting [6]), below 200 nM. For the same compound, the results for the half-inhibitory concentration (IC50) at Aurora A (setting [7]) and at Aurora A (setting [8]) were below 1000 nM and 38 nM, respectively. The same compound came in with a GI50 in the experiment on MOLM-13 cell of 3 nM.
Take `CCc1cc(NC(=O)Nc2ccc(-c3cnc(Nc4cc(N5CCN(CC)CC5)nc(C)n4)s3)cc2)no1` [Compound 112, N-(5-ethyl-3-isoxazolyl)-N′-[4-(2-[6-(4-ethylpiperazino)-2-methyl-4-pyrimidinyl]amino-1,3-thiazol-5-yl)phenyl]urea]: the IC50 at VEGFR2 (setting [1]) is below 1 µM; on VEGFR2 (setting [2]), 0.001 to 0.055 µM; on VEGFR2 (setting [3]), 0.025 µM; at wt-FLT3 (setting [4]) it was 1 to 20 nM; on wt-FLT3 (setting [5]) it was 15 nM; on Aurora A (setting [6]), below 200 nM. The values for the IC50 at Aurora A (setting [7]) and at Aurora A (setting [8]) were below 1000 nM and 32 nM, respectively. In addition, the GI50 in the experiment on MOLM-13 cell turned out to be 2 nM.
